Results taken from publication PMC3402233 (International Journal of Pharmaceutics, 2012).

Legend:
[1] = target: P-gp (Homo sapiens, UniProt P08183); experiment: P-gp inhibition: [3H]digoxin accumulation in MDCK-MDR1 cells; type: cell-based
[2] = target: T1, Bcrp1 (Mus musculus, UniProt Q7TMS5); experiment: Bcrp1 inhibition: [3H]abacavir accumulation in MDCK-Bcrp1 cells; type: cell-based, murine; conditions: 10, 25 and 50μM inhibitor
T1 sequence (Q7TMS5 1-657): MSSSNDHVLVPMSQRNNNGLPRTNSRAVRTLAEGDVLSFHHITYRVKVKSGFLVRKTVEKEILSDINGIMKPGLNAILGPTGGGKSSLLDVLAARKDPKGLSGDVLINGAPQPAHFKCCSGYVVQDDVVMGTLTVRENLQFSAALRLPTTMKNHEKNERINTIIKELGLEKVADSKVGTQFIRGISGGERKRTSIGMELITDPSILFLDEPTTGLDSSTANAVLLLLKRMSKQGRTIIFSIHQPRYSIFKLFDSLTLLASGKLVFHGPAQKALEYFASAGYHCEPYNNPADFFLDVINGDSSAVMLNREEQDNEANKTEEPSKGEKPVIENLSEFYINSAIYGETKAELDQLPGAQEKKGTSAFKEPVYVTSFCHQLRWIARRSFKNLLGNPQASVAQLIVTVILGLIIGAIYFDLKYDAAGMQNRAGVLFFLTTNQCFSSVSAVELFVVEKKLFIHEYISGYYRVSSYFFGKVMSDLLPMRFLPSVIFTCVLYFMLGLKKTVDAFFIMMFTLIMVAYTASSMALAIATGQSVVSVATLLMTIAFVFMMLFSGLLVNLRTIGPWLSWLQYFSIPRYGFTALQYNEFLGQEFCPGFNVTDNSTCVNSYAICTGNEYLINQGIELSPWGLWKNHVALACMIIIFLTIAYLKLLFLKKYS

[3] = Bi-directional transport across MDCKII-WT cell monolayers; type: in vitro ADME, canine; conditions: dog, MDCK
[4] = tested on: MDCK-WT cell monolayers; experiment: as above; type: in vitro ADME, canine; conditions: 5μM vandetanib
[5] = Brain accumulation and plasma pharmacokinetics of vandetanib in FVB mice; type: in vivo, male FVB wild type mice
[6] = target: T2, P-gp (MDR1) (Homo sapiens, UniProt P08183); experiment: Bi-directional transport across MDCKII-MDR1 cell monolayers; type: in vitro ADME
T2 sequence (P08183 whole entry): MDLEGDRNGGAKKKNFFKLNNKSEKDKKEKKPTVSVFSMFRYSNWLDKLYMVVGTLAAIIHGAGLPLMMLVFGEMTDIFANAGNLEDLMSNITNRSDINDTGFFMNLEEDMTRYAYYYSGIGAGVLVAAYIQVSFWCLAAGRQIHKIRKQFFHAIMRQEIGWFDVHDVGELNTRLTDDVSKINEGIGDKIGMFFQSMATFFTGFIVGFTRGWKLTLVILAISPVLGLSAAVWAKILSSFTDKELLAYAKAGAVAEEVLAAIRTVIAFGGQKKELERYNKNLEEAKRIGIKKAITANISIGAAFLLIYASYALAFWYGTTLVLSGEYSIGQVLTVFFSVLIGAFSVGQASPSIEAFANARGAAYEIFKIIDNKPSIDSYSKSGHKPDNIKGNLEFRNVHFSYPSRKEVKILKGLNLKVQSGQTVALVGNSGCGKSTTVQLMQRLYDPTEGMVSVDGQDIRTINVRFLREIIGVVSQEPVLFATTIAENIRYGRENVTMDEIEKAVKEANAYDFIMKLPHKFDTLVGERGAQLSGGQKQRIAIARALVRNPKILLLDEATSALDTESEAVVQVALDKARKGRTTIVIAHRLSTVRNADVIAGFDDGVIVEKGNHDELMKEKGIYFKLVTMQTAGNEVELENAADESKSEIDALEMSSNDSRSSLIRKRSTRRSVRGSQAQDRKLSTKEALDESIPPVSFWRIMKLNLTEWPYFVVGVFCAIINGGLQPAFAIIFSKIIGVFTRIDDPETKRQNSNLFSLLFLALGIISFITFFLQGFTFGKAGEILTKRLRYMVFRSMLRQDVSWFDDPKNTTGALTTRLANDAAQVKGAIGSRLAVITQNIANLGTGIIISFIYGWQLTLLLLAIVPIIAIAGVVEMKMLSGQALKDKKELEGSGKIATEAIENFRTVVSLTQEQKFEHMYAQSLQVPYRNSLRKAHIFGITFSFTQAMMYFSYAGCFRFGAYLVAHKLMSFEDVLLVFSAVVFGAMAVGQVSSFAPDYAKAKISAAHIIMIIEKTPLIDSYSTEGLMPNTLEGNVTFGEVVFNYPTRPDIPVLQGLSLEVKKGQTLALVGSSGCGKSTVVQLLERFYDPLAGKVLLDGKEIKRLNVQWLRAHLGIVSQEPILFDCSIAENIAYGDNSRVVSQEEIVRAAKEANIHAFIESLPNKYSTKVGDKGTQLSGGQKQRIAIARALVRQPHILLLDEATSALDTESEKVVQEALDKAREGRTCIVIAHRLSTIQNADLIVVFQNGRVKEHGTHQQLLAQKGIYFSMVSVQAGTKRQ

[7] = target: T2, P-gp (MDR1); experiment: Cellular accumulation of vandetanib in MDCKII-MDR1 vs parent WT cells; conditions: 100nM vandetanib, 60 min accumulation
[8] = target: T1, Bcrp1; experiment: Bi-directional transport across MDCKII-Bcrp1 cell monolayers; type: in vitro ADME, murine
[9] = male, FVB, mouse, plasma, iv, 5 mg/kg

Sequence of P-gp (P08183 whole entry): as above

Compound	IC50 [1]	Intracellular accumulation of [3H]abacavir in MDCK-Bcrp1 cells in the presence of inhibitor [2]	Papp A→B at 240 min, 5 μM [3]	Papp B→A at 240 min, 5 μM [3]	efflux ratio at 240 min, 5 μM [3]	Directionality of vandetanib transport across WT cells [4]	AUC(0-t) ([5]; male, FVB, mouse, brain, iv, 5 mg/kg)	AUC(0-t) [5, 9]	Vd [5, 9]	clearance [5, 9]	Brain concentrations compared with plasma concentrations ([5]; vandetanib 5mg/kg i.v. alone, 15, 30, 60 and 120min)	Directional flux of vandetanib across MDR1 transfected cells ([6]; 5μM vandetanib)	Papp A→B at 240 min, 5 μM ([6]; dog, MDCK-MDR1)	Papp B→A at 240 min, 5 μM ([6]; dog, MDCK-MDR1)	efflux ratio at 240 min, 5 μM ([6]; dog, MDCK-MDR1)	Vandetanib accumulation in MDR1 overexpressing cells versus WT cells [7]	Papp A→B at 240 min, 5 μM [8]	Papp B→A at 240 min, 5 μM [8]	efflux ratio at 240 min, 5 μM [8]
CO[C@H]1C[C@@H]2CC[C@@H](C)[C@@](O)(O2)C(=O)C(=O)N2CCCC[C@H]2C(=O)O[C@H]([C@H](C)C[C@@H]2CC[C@@H](OCCO)[C@H](OC)C2)CC(=O)[C@H](C)/C=C(\C)[C@@H](O)[C@@H](OC)C(=O)[C@H](C)C[C@H](C)/C=C/C=C/C=C/1C [everolimus]	3 µM	increased significantly	–	–	–	–	–	–	–	–	–	–	–	–	–	–	–	–	–
CO[C@H]1C[C@@H]2CC[C@@H](C)[C@@](O)(O2)C(=O)C(=O)N2CCCC[C@H]2C(=O)O[C@H]([C@H](C)C[C@@H]2CC[C@@H](OC(=O)C(C)(CO)CO)[C@H](OC)C2)CC(=O)[C@H](C)/C=C(\C)[C@@H](O)[C@@H](OC)C(=O)[C@H](C)C[C@H](C)/C=C/C=C/C=C/1C [temsirolimus]	3.5 µM	increased significantly	–	–	–	–	–	–	–	–	–	–	–	–	–	–	–	–	–
COc1cc2c(Nc3ccc(Br)cc3F)ncnc2cc1OCC1CCN(C)CC1 [Vandetanib]	–	–	7.57 ± 0.52 ×10⁻⁶ cm/s	8.08 ± 0.17 ×10⁻⁶ cm/s	1.06	no directionality in transport	1050 ng·h/mL	5090 ng·h/mL	1.3 L/kg	9.36 mL/min/kg	Brain concentrations were significantly lower than the plasma concentration	No significant difference was observed in the directional flux	5.73 ± 0.29 ×10⁻⁶ cm/s	4.66 ± 0.26 ×10⁻⁶ cm/s	0.81	not statistically different from WT cells	5.66 ± 1.26 ×10⁻⁶ cm/s	42.3 ± 2.64 ×10⁻⁶ cm/s	7.5
